US9006235B2, “Inhibitors of human immunodeficiency virus replication” (priority 2012, dated 2015)
Like-named read-outs stand apart in the source and are kept apart here.

System: recombinant NL-Rluc virus
Assay: Inhibition of HIV replication (NL-Rluc virus, luciferase readout in MT-2 cells)
Format: cell-based
Settings: Human immunodeficiency virus 1, MT2, 120 h

Compound `Cc1nc2cc(NC(=O)c3cc(C(C)(C)C)nn3C)nn2c(-c2cc(F)c3c(c2C)CCCO3)c1[C@H](OC(C)(C)C)C(=O)O` [Example 11, (2S)-2-tert-butoxy-2-(2-(3-tert-butyl-1-methyl-1H-pyrazole-5-carboxamido)-7-(8-fluoro-5-methylchroman-6-yl)-5-methylpyrazolo[1,5-a]pyrimidin-6-yl)acetic acid] has an EC50 (read-out: Activity) of less than 100 nM.

Work on `Cc1nc2cc(NC(=O)CCCc3ccccc3)nn2c(-c2cc(F)c3c(c2C)CCCO3)c1[C@H](OC(C)(C)C)C(=O)O` [Example 12, (2S)-2-tert-butoxy-2-(7-(8-fluoro-5-methylchroman-6-yl)-5-methyl-2-(4-phenylbutanamido)pyrazolo[1,5-a]pyrimidin-6-yl)acetic acid] yielded an EC50 of 50 nM and an EC50 (read-out: Activity) of less than 100 nM.

`Cc1nc2cc(NC(=O)COC3C[C@@H](C)CC[C@@H]3C(C)C)nn2c(-c2cc(F)c3c(c2C)CCCO3)c1[C@H](OC(C)(C)C)C(=O)O` (stereo partly drawn) [Example 13, (2S)-2-tert-butoxy-2-(7-(8-fluoro-5-methylchroman-6-yl)-2-(2-((2R,5S)-2-isopropyl-5-methylcyclohexyloxy)acetamido)-5-methylpyrazolo[1,5-a]pyrimidin-6-yl)acetic acid] showed an EC50 (read-out: Activity) of less than 100 nM.

In the case of `CCOc1cccc(C(=O)Nc2cc3nc(C)c([C@H](OC(C)(C)C)C(=O)O)c(-c4cc(F)c5c(c4C)CCCO5)n3n2)c1` [Example 14, (2S)-2-tert-butoxy-2-(2-(3-ethoxybenzamido)-7-(8-fluoro-5-methylchroman-6-yl)-5-methylpyrazolo[1,5-a]pyrimidin-6-yl)acetic acid], the EC50 (read-out: Activity) is reported as less than 100 nM.

`COc1ccc(C(=O)Nc2cc3nc(C)c([C@H](OC(C)(C)C)C(=O)O)c(-c4cc(F)c5c(c4C)CCCO5)n3n2)cc1OC` [Example 15, (2S)-2-tert-butoxy-2-(2-(3,4-dimethoxybenzamido)-7-(8-fluoro-5-methylchroman-6-yl)-5-methylpyrazolo[1,5-a]pyrimidin-6-yl)acetic acid] was tested, and the EC50 was 260 nM and the EC50 (read-out: Activity) was 100 to 1000 nM.

`Cc1nc2cc(NC(=O)CCc3ccccc3)nn2c(-c2cc(F)c3c(c2C)CCCO3)c1[C@H](OC(C)(C)C)C(=O)O` [Example 16, (2S)-2-tert-butoxy-2-(7-(8-fluoro-5-methylchroman-6-yl)-5-methyl-2-(3-phenylpropanamido)pyrazolo[1,5-a]pyrimidin-6-yl)acetic acid] gave an EC50 (read-out: Activity) of 100 to 1000 nM.

`CCCCCC(=O)Nc1cc2nc(C)c([C@H](OC(C)(C)C)C(=O)O)c(-c3cc(F)c4c(c3C)CCCO4)n2n1` [Example 17, (2S)-2-tert-butoxy-2-(7-(8-fluoro-5-methylchroman-6-yl)-2-hexanamido-5-methylpyrazolo[1,5-a]pyrimidin-6-yl)acetic acid] was tested, and the EC50 (read-out: Activity) was less than 100 nM.

Compound `Cc1nc2cc(NC(=O)c3ccc4c(c3)-c3ccccc3C4=O)nn2c(-c2cc(F)c3c(c2C)CCCO3)c1[C@H](OC(C)(C)C)C(=O)O` [Example 18, (2S)-2-tert-butoxy-2-(7-(8-fluoro-5-methylchroman-6-yl)-5-methyl-2-(9-oxo-9H-fluorene-3-carboxamido)pyrazolo[1,5-a]pyrimidin-6-yl)acetic acid] has an EC50 (read-out: Activity) of 100 to 1000 nM.

`CCOc1ccccc1C(=O)Nc1cc2nc(C)c([C@H](OC(C)(C)C)C(=O)O)c(-c3cc(F)c4c(c3C)CCCO4)n2n1` [Example 19, (2S)-2-tert-butoxy-2-(2-(2-ethoxybenzamido)-7-(8-fluoro-5-methylchroman-6-yl)-5-methylpyrazolo[1,5-a]pyrimidin-6-yl)acetic acid] showed an EC50 (read-out: Activity) of less than 100 nM.

With `Cc1nc2cc(NC(=O)CCCCCC(C)(C)C)nn2c(-c2cc(F)c3c(c2C)CCCO3)c1[C@H](OC(C)(C)C)C(=O)O` [Example 20, (2S)-2-tert-butoxy-2-(2-(7,7-dimethyloctanamido)-7-(8-fluoro-5-methylchroman-6-yl)-5-methylpyrazolo[1,5-a]pyrimidin-6-yl)acetic acid] the EC50 (read-out: Activity) was less than 100 nM.

With `Cc1nc2cc(NC(=O)CC3CCCC3)nn2c(-c2cc(F)c3c(c2C)CCCO3)c1[C@H](OC(C)(C)C)C(=O)O` [Example 21, (2S)-2-tert-butoxy-2-(2-(2-cyclopentylacetamido)-7-(8-fluoro-5-methylchroman-6-yl)-5-methylpyrazolo[1,5-a]pyrimidin-6-yl)acetic acid] the EC50 (read-out: Activity) was less than 100 nM.

`Cc1nc2cc(NC(=O)c3ccc4c(c3)OC(F)(F)O4)nn2c(-c2cc(F)c3c(c2C)CCCO3)c1[C@H](OC(C)(C)C)C(=O)O` [Example 22, (2S)-2-tert-butoxy-2-(2-(2,2-difluorobenzo[d][1,3]-dioxole-5-carboxamido)-7-(8-fluoro-5-methylchroman-6-yl)-5-methylpyrazolo[1,5-a]pyrimidin-6-yl)acetic acid] showed an EC50 (read-out: Activity) of 100 to 1000 nM.

`COc1ccc(CCC(=O)Nc2cc3nc(C)c([C@H](OC(C)(C)C)C(=O)O)c(-c4cc(F)c5c(c4C)CCCO5)n3n2)cc1` [Example 23, (2S)-2-tert-butoxy-2-(7-(8-fluoro-5-methylchroman-6-yl)-2-(3-(4-methoxyphenyl)propanamido)-5-methylpyrazolo[1,5-a]pyrimidin-6-yl)acetic acid] showed an EC50 of 170 nM and an EC50 (read-out: Activity) of 100 to 1000 nM.

`Cc1nc2cc(NC(=O)CC3CCCCC3)nn2c(-c2cc(F)c3c(c2C)CCCO3)c1[C@H](OC(C)(C)C)C(=O)O` [Example 25, (2S)-2-tert-butoxy-2-(2-(2-cyclohexylacetamido)-7-(8-fluoro-5-methylchroman-6-yl)-5-methylpyrazolo[1,5-a]pyrimidin-6-yl)acetic acid] was tested, and the EC50 (read-out: Activity) was less than 100 nM.

With `Cc1nc2cc(NC(=O)Cc3ccc(Cl)c(Cl)c3)nn2c(-c2cc(F)c3c(c2C)CCCO3)c1[C@H](OC(C)(C)C)C(=O)O` [Example 26, (2S)-2-tert-butoxy-2-(2-(2-(3,4-dichlorophenyl)acetamido)-7-(8-fluoro-5-methylchroman-6-yl)-5-methylpyrazolo[1,5-a]pyrimidin-6-yl)acetic acid] the EC50 (read-out: Activity) was less than 100 nM.

`Cc1nc2cc(NC(=O)CCCOc3ccccc3)nn2c(-c2cc(F)c3c(c2C)CCCO3)c1[C@H](OC(C)(C)C)C(=O)O` [Example 27, (2S)-2-tert-butoxy-2-(7-(8-fluoro-5-methylchroman-6-yl)-5-methyl-2-(4-phenoxybutanamido)pyrazolo[1,5-a]pyrimidin-6-yl)acetic acid] was tested, and the EC50 (read-out: Activity) was 100 to 1000 nM.

`Cc1nc2cc(NC(=O)CCC3CCCCC3)nn2c(-c2cc(F)c3c(c2C)CCCO3)c1[C@H](OC(C)(C)C)C(=O)O` [Example 28, (2S)-2-tert-butoxy-2-(2-(3-cyclohexylpropanamido)-7-(8-fluoro-5-methylchroman-6-yl)-5-methylpyrazolo[1,5-a]pyrimidin-6-yl)acetic acid] gave an EC50 (read-out: Activity) of less than 100 nM.

`COc1cc(C(=O)Nc2cc3nc(C)c([C@H](OC(C)(C)C)C(=O)O)c(-c4cc(F)c5c(c4C)CCCO5)n3n2)cc(OC)c1OC` [Example 29, (2S)-2-tert-butoxy-2-(7-(8-fluoro-5-methylchroman-6-yl)-5-methyl-2-(3,4,5-trimethoxybenzamido)pyrazolo[1,5-a]pyrimidin-6-yl)acetic acid] gave an EC50 (read-out: Activity) of 100 to 1000 nM.

Work on `Cc1nc2cc(NC(=O)C(=O)c3c[nH]c4ccccc34)nn2c(-c2cc(F)c3c(c2C)CCCO3)c1[C@H](OC(C)(C)C)C(=O)O` [Example 31, (2S)-2-(2-(2-(1H-indol-3-yl)-2-oxoacetamido)-7-(8-fluoro-5-methylchroman-6-yl)-5-methylpyrazolo[1,5-a]pyrimidin-6-yl)-2-tert-butoxyacetic acid] yielded an EC50 (read-out: Activity) of less than 100 nM.

In the case of `Cc1ccc(OC(=O)Nc2cc3nc(C)c([C@H](OC(C)(C)C)C(=O)O)c(-c4cc(F)c5c(c4C)CCCO5)n3n2)cc1` [Example 32, (2S)-2-(tert-butoxy)-2-(7-(8-fluoro-5-methylchroman-6-yl)-5-methyl-2-(((p-tolyloxy)carbonyl)amino)pyrazolo[1,5-a]pyrimidin-6-yl)acetic acid], the EC50 (MT-2 cells infected with NL-RLuc virus, 5 days of incubation, luciferase, serum condition not specified, read-out: Activity) is reported as greater than 1000 nM and the EC50 (MT-2 cells infected with NL-RLuc virus, 5 days of incubation, luciferase, serum condition not specified, read-out: EC50) is reported as 6410 nM.

`Cc1nc2cc(NC(=O)OCc3ccccc3)nn2c(-c2cc(F)c3c(c2C)CCCO3)c1[C@H](OC(C)(C)C)C(=O)O` [Example 33, (2S)-2-(2-(((benzyloxy)carbonyl)amino)-7-(8-fluoro-5-methylchroman-6-yl)-5-methylpyrazolo[1,5-a]pyrimidin-6-yl)-2-(tert-butoxy)acetic acid] gave an EC50 of 60 nM and an EC50 (read-out: Activity) of less than 100 nM.

With `CCCCOC(=O)Nc1cc2nc(C)c([C@H](OC(C)(C)C)C(=O)O)c(-c3cc(F)c4c(c3C)CCCO4)n2n1` [Example 34, (2S)-2-(tert-butoxy)-2-(2-((butoxycarbonyl)amino)-7-(8-fluoro-5-methylchroman-6-yl)-5-methylpyrazolo[1,5-a]pyrimidin-6-yl)acetic acid] the EC50 (read-out: Activity) was less than 100 nM.

For `Cc1nc2cc(NC(=O)OCC(C)(C)C)nn2c(-c2cc(F)c3c(c2C)CCCO3)c1[C@H](OC(C)(C)C)C(=O)O` [Example 35, (2S)-2-(tert-butoxy)-2-(7-(8-fluoro-5-methylchroman-6-yl)-5-methyl-2-(((neopentyloxy)carbonyl)amino)pyrazolo[1,5-a]pyrimidin-6-yl)acetic acid], the EC50 (read-out: Activity) was less than 100 nM.

Work on `Cc1nc2cc(NC(=O)OCC[Si](C)(C)C)nn2c(-c2cc(F)c3c(c2C)CCCO3)c1[C@H](OC(C)(C)C)C(=O)O` [Example 36, (2S)-2-(tert-butoxy)-2-(7-(8-fluoro-5-methylchroman-6-yl)-5-methyl-2-(((2-(trimethylsilyl)ethoxy)carbonyl)amino)pyrazolo[1,5-a]pyrimidin-6-yl)acetic acid] yielded an EC50 (read-out: Activity) of less than 100 nM.

`Cc1ccc(NC(=O)Nc2cc3nc(C)c([C@H](OC(C)(C)C)C(=O)O)c(-c4cc(F)c5c(c4C)CCCO5)n3n2)cc1` [Example 37, (2S)-2-(tert-butoxy)-2-(7-(8-fluoro-5-methylchroman-6-yl)-5-methyl-2-(3-(p-tolyl)ureido)pyrazolo[1,5-a]pyrimidin-6-yl)acetic acid] was tested, and the EC50 (read-out: Activity) was less than 100 nM.

Compound `Cc1nc2cc(NCc3ccccc3)nn2c(-c2cc(F)c3c(c2C)CCCO3)c1[C@H](OC(C)(C)C)C(=O)O` [Example 38, (2S)-2-(2-(benzylamino)-7-(8-fluoro-5-methylchroman-6-yl)-5-methylpyrazolo[1,5-a]pyrimidin-6-yl)-2-(tert-butoxy)acetic acid] has an EC50 of 300 nM and an EC50 (read-out: Activity) of 100 to 1000 nM.
